Measurements as given in patent US20240424010A1, “NICOTINAMIDE RIBOSIDE TRIOLEATES CHLORIDE, COMPOSITIONS CONTAINING THIS COMPOUND, AND METHODS OF MAKING AND USING THIS COMPOUND” (SOCIETE DES PRODUITS NESTLE S.A., priority 2021, published 2024).

Tests used:
[1] = Stability of NRTOCl and NRCl in DI water at 35° C. for 28 days (released nicotinamide by HPLC); type: physicochemical; settings: DI water, 1000 ppm, 28 days
Experimental: Although NRTOCl is a quaternary ammonium salt, it was not dissolved in water due to the existence of three groups of oleate fatty ester in its structure. Therefore, for the stability study of NRTOCl, this compound was dispersed in DI water using 1% ethanol as a cosolvent. For this purpose, 15 mg of NRTOCl was dissolved in 0.15 ml of ethanol (1%) and then 14.85 ml of DI water was added to the mixture and gently shaken. […] Although the average size of NRTOCl in this sample was 192 nm, the images of TEM disclosed smaller particles with around 50 nm and oval and spherical shapes with aspect ratio close to unity (FIGS. 10A-10C). In the nanoparticles, the NRTOCl structures are stacked on top of each other layer-by-layer. The highly positive charge of NRTO makes the nanoparticles stable in the aqueous phase. After dispersion of NRTOCl in DI water, NRCl was dissolved in DI water, and the stability of these samples were studied at 35° C. for 28 days (FIG. 11). The concentration of each sample was 1000 ppm. As during the hydrolysis reaction of NRTO and NR, both of these compounds released nicotinamide (FIG. 12), and by measuring the released amount of nicotinamide in each sample with HPLC, the remaining amounts of NRTO and NR in each sample were calculated. During this study, any release of NR from NRTO sample was not detected. It signifies that the heavy ester groups in NRTO sample are not hydrolyzed during the time of stability study. Because this study was performed in DI water and the conditions were mild, the NRTO was hydrolyzed from its N-glycoside bond.

[2] = Hydrolysis stability of NRTOCl and NRCl oil-in-water emulsions and NRCl in water at 35° C. for 26 days; type: physicochemical
Experimental: The emulsion was prepared using 480 mg of oil stock containing 15 wt. % NRTOCl in canola oil and an aqueous phase (14.52 g) of Na-caseinate (2 wt. %), KCl (0.3 wt. %), NaCl (0.1 wt. %), CaCl2 (0.2 wt. %) and NaN3 (0.01 wt. %).
The emulsion was-prepared using 480 mg of oil stock containing 15 wt. % NRTOCl in canola oil and 0.025 g of lecithin. The aqueous phase (14.5 g) contained Na-caseinate (2 wt. %), KC (0.3 wt. %), NaCl (0.1 wt. %), CaCl2 (0.2 wt. %) and NaN3 (0.01 wt. %).
The emulsion was-prepared using 480 mg of oil stock containing 15 wt. % NRTOCl in canola oil and an aqueous phase (14.52 g) of polysorbate 80 (Tween 80) (2 wt. %).
The emulsion was prepared using around 480 mg of canola oil in an aqueous phase (14.52 g) of NRCl (19 mg), Na-caseinate (2 wt. %), KCl (0.3 wt. %), NaCl (0.1 wt. %), CaCl2 (0.2 wt. %) and NaN3 (0.01 wt. %).
After each specific time of stability for NRTOCl and NRCl emulsions, 1.5 mL of each emulsion was centrifuged (14,000 rpm) for 20 minutes at room temperature.
Since NRTOCl is a very hydrophobic compound, to evaluate its stability in oil phase, an emulsion system was used to study the stability of NRTOCl as a function of time. For this purpose, a 15% w/w solution of NRTOCl in canola oil was used for making different emulsions with Na-caseinate, Tween 80 and lecithin as the emulsifiers (2 wt. %) at room temperature.
When Na-caseinate was used as an emulsifier, the aqueous phase must be a solution of NaCl (0.1 wt. %), CaCl2 (0.2 wt. %) and KCl (0.3 wt. %) because caseinate anion with minus charge and NRTO with positive charge immediately aggregated in DI water. The total oil phase in these emulsions were 3.2 wt. %, and the concentration of NRTOCl in total volume of each emulsion (15 mL) was 4.4 mM. In the emulsions that used Na-caseinate as an emulsifier, NaN3 (0.01 wt. %) was added to prevent the growth of bacteria. When the NRTOCl emulsion was made by 2 wt. % Na-caseinate, its average size and zeta potential in this emulsion (Cas emulsion) were 1020 nm and −14.4 mV respectively.
After making NRTOCl emulsions, a NRCl in canola oil-in-water emulsion was attempted as a control experiment using 3.2% canola oil. The aqueous phase was a solution of Na-caseinate (2 wt. %), NaCl (0.1 wt. %), CaCl2 (0.2 wt. %), KCl (0.3 wt. %) and NaN3 (0.01 wt. %). The concentration of NRCl in total volume (15 mL) of this emulsion was 4.4 mM. Moreover, 15 mL of NRCl solution in DI water was prepared with 4.4 mM concentration as the other control experiment. After preparing three NRTOCl emulsions and two control experiment samples, hydrolysis stability of each sample was studied at 35° C. for 26 days (FIG. 14). The rate of degradation was measured by determination of the released nicotinamide from each sample. […]

[3] = Hydrolysis stability of NRTOCl emulsions and NRCl in water at room temperature for 42 days; type: physicochemical; settings: room temperature, 42 days
Experimental: After each specific time of stability for NRTOCl and NRCl emulsions, 1.5 mL of each emulsion was centrifuged (14,000 rpm) for 20 minutes at room temperature. […] However, during this time of stability study, 52.0% NR was intact in water at room temperature. […] During this time, these emulsions were stable without visible phase separation. A little increase in the average size of the NRTO droplets occurred in these emulsions, so that in Cas emulsion, the average size increased from 1020 nm to 1281 nm, and in Cas-Lec emulsion, this parameter increased from 1012 nm to 1106 nm.

[4] = tested on: NAD+ level in mammalian cell; settings: cited from earlier work
[5] = Solubility study of NRTBCl in long and medium chain triglycerides and in water at different pH; type: physicochemical
Experimental: To study the solubility of NRTBCl in long chain triglycerides, we tried to dissolve this compound in olive oil and corn oil. For this purpose, 15 mg of NRTBCl was added to 15 ml of olive oil and vigorously shaked with vortex for 10 minutes at room temperature. […] This procedure was repeated by using corn oil instead of olive oil and the obtained results disclosed that NRTB was insoluble in corn oil. To study the solubility of NRTBCl in medium chain triglycerides, we tried to dissolve this compound in coconut oil. For this purpose, 15 mg of NRTBCl was added to 15 ml of coconut oil and vigorously shaked with vortex for 10 minutes at room temperature. […] To study the solubility of NRTB in water, three aqueous solutions of NRTBCl were prepared with 10000 ppm concentration at pH 5, 7, and 9.

[6] = NRTBCl stability measurement in MQ water at 35° C.; type: physicochemical; settings: 6 days, 1000 ppm, preliminary
Experimental: The stability study of the NRTBCl was performed by dissolving NRTB in MQ water and keeping at 35° C. for 6 days. The concentration of each sample was 1000 ppm. […] The reason for increasing the intensity of the peak at 33 min (flow rate: 0.75 mL/min), is that the byproduct of degradation is nicotinamide (NA), which has the retention time of 33 min (exactly as NRTBCl).

[7] = 15 mg in 15 ml, vortex 10 minutes, room temperature

| remaining amount after 28 days [1] [%] | solubility in the oil phase of the emulsion [2] | NR hydrolyzed after 42 days [3] [%] | NR intact in water after 42 days ([3]; water) [%] | solubility (general statement) [5] | solubility in coconut oil [5, 7] | solubility in corn oil [5, 7] | solubility in olive oil [5, 7] | solubility in water at different pH ([5]; 10000 ppm, pH 5, 7, and 9, zeta sizer) | hydrolysis stability in MQ water [6] | Compound | boost of the level of NAD+ in mammalian cell [4] |
| --- | --- | --- | --- | --- | --- | --- | --- | --- | --- | --- | --- |
| 0.6 | cannot be dissolved | 48 | 52.0 |  |  |  |  |  |  | NC(=O)c1ccc[n+]([C@@H]2O[C@H](CO)[C@@H](O)[C@H]2O)c1.[Cl-] [NRCl, Nicotinamide riboside chloride, reference compound] | up to two fold |
|  |  |  |  | did not demonstrate good solubility | not dissolved | insoluble | not dissolved | completely be dissolved | easily hydrolyzed | CCCC(=O)OC[C@H]1O[C@@H]([n+]2cccc(C(N)=O)c2)[C@H](OC(=O)CCC)[C@@H]1OC(=O)CCC.[Cl-] [NRTBCl, nicotinamide riboside tributyrates chloride] |  |
